From paper PMC12643509, “High-throughput screens identify genotype-specific therapeutics for channelopathies” (JCI Insight, 2025)
Several values for one entry are separate records, joined by “and”; a condition that tells them apart may be missing. Equal entries are not always repeated.

Legend:
wild-type KV11.1 = wild-type KV11.1 (Homo sapiens, UniProt Q12809)
WT Kv11.1 = WT Kv11.1 (Homo sapiens, UniProt Q12809); conditions: 24 hour and washout, individual wells
Sequence of WT Kv11.1 (Q12809 whole entry): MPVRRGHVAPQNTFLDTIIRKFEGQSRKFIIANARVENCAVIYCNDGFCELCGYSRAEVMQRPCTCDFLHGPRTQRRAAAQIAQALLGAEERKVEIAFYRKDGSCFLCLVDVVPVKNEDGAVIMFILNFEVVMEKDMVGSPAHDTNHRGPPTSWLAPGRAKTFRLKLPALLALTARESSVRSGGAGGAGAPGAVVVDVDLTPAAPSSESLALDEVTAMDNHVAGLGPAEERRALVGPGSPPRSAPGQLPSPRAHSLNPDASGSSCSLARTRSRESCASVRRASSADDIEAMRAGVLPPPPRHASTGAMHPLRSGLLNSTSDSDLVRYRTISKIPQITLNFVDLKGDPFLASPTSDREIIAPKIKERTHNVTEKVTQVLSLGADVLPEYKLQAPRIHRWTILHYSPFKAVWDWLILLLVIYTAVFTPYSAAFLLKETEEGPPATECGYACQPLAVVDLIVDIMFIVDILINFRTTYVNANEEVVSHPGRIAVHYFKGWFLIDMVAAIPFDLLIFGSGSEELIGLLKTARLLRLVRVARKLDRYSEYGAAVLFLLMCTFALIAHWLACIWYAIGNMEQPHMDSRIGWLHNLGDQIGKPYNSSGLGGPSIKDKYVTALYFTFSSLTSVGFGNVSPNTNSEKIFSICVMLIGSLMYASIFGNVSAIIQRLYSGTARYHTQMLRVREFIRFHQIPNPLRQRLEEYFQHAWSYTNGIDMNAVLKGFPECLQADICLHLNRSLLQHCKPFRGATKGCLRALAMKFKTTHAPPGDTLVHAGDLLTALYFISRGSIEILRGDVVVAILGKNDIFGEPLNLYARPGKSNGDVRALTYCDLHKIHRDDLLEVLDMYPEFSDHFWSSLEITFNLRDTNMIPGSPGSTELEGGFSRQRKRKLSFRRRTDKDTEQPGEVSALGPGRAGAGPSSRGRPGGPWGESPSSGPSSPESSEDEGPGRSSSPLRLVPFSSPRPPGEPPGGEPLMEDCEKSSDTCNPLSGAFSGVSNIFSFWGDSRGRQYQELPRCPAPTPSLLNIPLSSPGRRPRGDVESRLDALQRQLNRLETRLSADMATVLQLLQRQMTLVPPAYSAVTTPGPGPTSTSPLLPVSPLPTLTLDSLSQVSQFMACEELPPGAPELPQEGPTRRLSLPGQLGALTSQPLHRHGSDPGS
Excerpt: plot of hits tested for 24-h our WT toxicity. Each point repres ents the med ia n robust Z score
after 24-hour treatm ent and washout in cells ex pressing WT.
robust Z scores be low bas eli ne function).
second ary screens w ere perform ed i n triplicate us ing 1 0 µ M drug treatme nt to assess: 1)
acute channel block, measur ed after a 15-minute inc ubati on with the drug present duri ng
recordi ngs; and 2) t oxicit y in W T channels, assesse d af t er a 24-hour drug ex posure fol low ed
(C) Tl+-measurements after 24-hour treatment and washout in HEK cells

Sequence of wild-type KV11.1 (Q12809 whole entry): as above

| Structure (SMILES) | inhibition of WT channels (wild-type KV11.1) | Changes in WT function (thallium flux) (WT Kv11.1) |
| --- | --- | --- |
| CCc1c(C)[nH]c2c1C(=O)C(CN1CCOCC1)CC2 (stereo not drawn) [Moban, moban] | did not inhibit WT channels |  |
| OC[C@H]1O[C@H](O[C@]2(CCl)O[C@H](CCl)[C@@H](O)[C@@H]2O)[C@H](O)[C@@H](O)[C@H]1Cl [Sucralose, sucralose] | did not inhibit WT channels | 0.1161 and 0.1317 and 0.1214 |
